Consider six molecules from PMC9224473 (International Journal of Molecular Sciences, 2022).

Converted amounts (≈) assume the structure as drawn.

In test [1] the test system is S. epidermidis ATCC 35984. Briefly: MIC, broth microdilution, standard strain. The test is classed as cell-based, Staphylococcus epidermidis. The settings on record: Staphylococcus epidermidis, ATCC35984, 19 h, 35 °C.
For test [2], the system named is S. epidermidis ATCC 12228. Briefly: MIC, broth microdilution, standard strain. The test is classed as cell-based, Staphylococcus epidermidis. As to conditions: Staphylococcus epidermidis, ATCC12228, 19 h, 35 °C.
Test [3] deals with E. coli ATCC 25922. Nature of the test: MIC, broth microdilution, standard strain. The settings on record: 35 °C; for MIC: Escherichia coli, ATCC25922, 19 h. It counts as cell-based, Escherichia coli.
For test [4], the system named is S. aureus ATCC 6538. Briefly: MIC, broth microdilution, standard strain. It counts as cell-based, Staphylococcus aureus. The settings on record: Staphylococcus aureus, ATCC6538, 19 h, 35 °C.
In test [5] the test system is S. epidermidis KR 4243. Briefly: MIC, broth microdilution, clinical strain. It counts as cell-based, Staphylococcus epidermidis. The settings on record: Staphylococcus epidermidis, KR4243, 19 h, 35 °C.
The test system of test [6] is HCT116 (human colon cancer). Briefly: MTT cytotoxicity assay. The test is classed as cell-based. The settings on record: Homo sapiens, HCT-116, 72 h, mean SD. As for the experimental part: (§1) The human cell lines SW480 (primary colon cancer), SW620 (lymph node metastatic colon cancer from the same patient as primary cancer cells), HCT116 (colon carcinoma), HepG2 (liver cancer), and HaCaT (immortalized keratinocytes) were obtained from the American Type Culture Collection (ATCC, Rockville, MD, USA). The SW480, SW620 and HCT116 cells were grown in MEM (ThermoSci, Waltham, MA, USA), HepG2 and HaCaT in DMEM High Glucose (Biowest SAS, Nuaillé, France) supplemented with 10% foetal bovine serum (FBS), HEPES (20 mM), and antibiotics (100 U mL^−1 of Penicillin and 100 μg mL^−1 of Streptomycin). The cells were incubated in a humidified incubator at 37 °C/5% CO2, until 80–90% confluence was reached.
(§2) The cell viability was assessed by using of MTT salt [3-(4,5-dimethylthiazol-2-yl)-2,5-diphenyltetrazolium bromide] converted by mitochondrial dehydrogenase, occurring in living cells. The cells were seeded in 96-well plates at a density of 1 × 10^4 cells per well and allowed to adhere for 24 h at 37 °C in a CO2 humidified incubator. […]. The untreated cells were used as the control.
(§3) After 72 h incubation, the medium was replaced with 200 µL per well of free-serum medium containing 0.5 mg mL^−1 MTT and incubated for 4 h at 37 °C in a CO2 humidified incubator. Subsequently, the medium was removed and dimethyl sulfoxide (DMSO) with isopropanol (1:1) was added to dissolve the formazan crystals. The optical density was measured using UVM 340 reader (ASYS Hitech GmbH, Eugendorf, Austria) at a wavelength of 570 nm. The experiments were repeated three times. The cell viability was calculated as the percent of MTT reduced in treated cells versus control cells (untreated cells). The number of viable cells cultured without tested compounds was assumed as 100%. A decreased relative MTT level indicates decreased cell viability. The IC50 values were estimated using CompuSyn version 1.0.

The subject of test [7] is HepG2 (human liver cancer). Nature of the test: MTT cytotoxicity assay. The test is classed as cell-based. As to conditions: Homo sapiens, HepG2, 72 h, mean SD. The procedure: as §1, §2, §3
Test [8] has as its system HaCaT (human immortal keratinocyte cell line). Briefly: MTT cytotoxicity assay. The test is classed as cell-based. The settings on record: Homo sapiens, HaCaT, 72 h, mean SD, read-out: IC50 HaCaT (normal cells). As for the experimental part: as §1, §2, §3
For test [9], the system named is SW480 (human primary colon cancer). Nature of the test: MTT cytotoxicity assay. The test is classed as cell-based. As to conditions: Homo sapiens, SW480, 72 h, mean SD. The procedure:
as §1, §2, §3

The test system of test [10] is S. aureus NCTC 4163. Nature of the test: MIC, broth microdilution, standard strain. The test is classed as cell-based, Staphylococcus aureus. As to conditions: Staphylococcus aureus, NCTC4163, 19 h, 35 °C.
Test [11] has as its system S. aureus T 5595. Briefly: MIC, broth microdilution, clinical strain. The test is classed as cell-based, Staphylococcus aureus. As to conditions: Staphylococcus aureus, T5595, 19 h, 35 °C.
Test [12] has as its system E. coli 510. Briefly: MIC, broth microdilution, clinical strain. The settings on record: Escherichia coli, 510, 19 h, 35 °C. It counts as cell-based, Escherichia coli.
In test [13] the test system is S. aureus T 5591. Briefly: MIC, broth microdilution, clinical strain. The test is classed as cell-based, Staphylococcus aureus. As to conditions: Staphylococcus aureus, T5591, 19 h, 35 °C.
Test [14] relates to SW620 (human metastatic colon cancer). Briefly: MTT cytotoxicity assay. As to conditions: Homo sapiens, SW-620, 72 h, mean SD. It counts as cell-based. The procedure: as §1
The cell viability was assessed by using of MTT salt [3-(4,5-dimethylthiazol-2-yl)-2,5-diphenyltetrazolium bromide] converted by mitochondrial dehydrogenase, occurring in living cells. […] The untreated cells were used as the control.
as §3, with “Subsequently,” for “After 72 h incubation, the medium was replaced with 200 µL per well of free-serum medium containing 0.5 mg mL^−1 MTT and incubated for 4 h at 37 °C in a CO2 humidified incubator. Subsequently,”

Test [15] has as its system E. coli 600. Briefly: MIC, broth microdilution, clinical strain. It counts as cell-based, Escherichia coli. The settings on record: Escherichia coli, 600, 19 h, 35 °C.
The test system of test [16] is P. aeruginosa ATCC 15442. Nature of the test: MIC, broth microdilution, standard strain. The test is classed as cell-based, Pseudomonas aeruginosa. As to conditions: Pseudomonas aeruginosa, ATCC15442, 19 h, 35 °C.
Test [17] deals with S. aureus ATCC 25923. Nature of the test: MIC, broth microdilution, standard strain. The test is classed as cell-based, Staphylococcus aureus. As to conditions: Staphylococcus aureus, ATCC25923, 19 h, 35 °C.
Test [18] has as its system S. aureus ATCC 29213. Briefly: MIC, broth microdilution, standard strain. The test is classed as cell-based, Staphylococcus aureus. The settings on record: Staphylococcus aureus, ATCC29213, 19 h, 35 °C.
Test [19] concerns E. coli 520. Nature of the test: MIC, broth microdilution, clinical strain. The settings on record: Escherichia coli, 520, 19 h, 35 °C. The test is classed as cell-based, Escherichia coli.
The test system of test [20] is P. aeruginosa 659. Nature of the test: MIC, broth microdilution, clinical strain. The settings on record: Pseudomonas aeruginosa, 659, read-out: MIC P. aeruginosa 659, 19 h, 35 °C. It counts as cell-based, Pseudomonas aeruginosa.
Test [21] relates to S. pasteuri KR 4358. Briefly: MIC, broth microdilution, clinical strain. The test is classed as cell-based, Staphylococcus pasteuri. The settings on record: Staphylococcus pasteuri, KR4358, 19 h, 35 °C.

For the molecule `CC(C)[C@@H]1CC[C@@H](C)C[C@H]1OC(=O)CN1CCN(c2cc3c(cc2F)c(=O)c(C(=O)O)cn3C2CC2)CC1` [Compound 2, 1-cyclopropyl-6-fluoro-7-{4-[2-((1R,2S,5R)-2-isopropyl-5-methylcyclohexyloxy)-2-oxoethyl]piperazin-1-yl}-4-oxo-1,4-dihydroquinoline-3-carboxylic acid], the MIC in test [1] was 16 µg/mL (≈ 30.3 µM); in [2], 16 µg/mL (≈ 30.3 µM); in test [3], 8 µg/mL (≈ 15.2 µM); in [4], 16 µg/mL (≈ 30.3 µM); in test [5] it was 16 µg/mL (≈ 30.3 µM); in [10], 16 µg/mL (≈ 30.3 µM). In addition, the MIC in [11] is 16 µg/mL (≈ 30.3 µM); in test [12], greater than 256 µg/mL; in test [13], 16 µg/mL (≈ 30.3 µM); in test [15], 16 µg/mL (≈ 30.3 µM); in test [16] it was 128 µg/mL (≈ 243 µM); in [17], 16 µg/mL (≈ 30.3 µM). Also, the minimum inhibitory concentration (MIC) in test [18] was 16 µg/mL (≈ 30.3 µM); in [19], 16 µg/mL (≈ 30.3 µM); in test [20] it was 128 µg/mL (≈ 243 µM); in test [21], 16 µg/mL (≈ 30.3 µM). For the same molecule, the IC50 in test [6] was found to be 32.3 ± 1.5 µM; in [7], 16.5 ± 0.4 µM; in test [8] it was 25.7 ± 3 µM; in test [9] it was 36 ± 2.9 µM; in [14], 26.7 ± 0.2 µM.

On to `Cc1ccc(C(C)C)c(OCC(=O)N2CCN(c3cc4c(cc3F)c(=O)c(C(=O)O)cn4C3CC3)CC2)c1` [Compound 9, 1-cyclopropyl-6-fluoro-7-{4-[2-(2-isopropyl-5-methylphenoxy)acetyl]piperazin-1-yl}-4-oxo-1,4-dihydroquinoline-3-carboxylic acid], for which the minimum inhibitory concentration (MIC) was 4 µg/mL (≈ 7.67 µM) in test [1]; 8 µg/mL (≈ 15.3 µM) in [2]; 16 µg/mL (≈ 30.7 µM) in test [3]; 2 µg/mL (≈ 3.83 µM) in [4]; 8 µg/mL (≈ 15.3 µM) in [5]; 2 µg/mL (≈ 3.83 µM) in test [10]. Also, the MIC in test [11] was 4 µg/mL (≈ 7.67 µM); in test [12], greater than 256 µg/mL; in test [13] it was 4 µg/mL (≈ 7.67 µM); in test [15], 32 µg/mL (≈ 61.4 µM); in [16], 256 µg/mL (≈ 491 µM); in test [17] it was 2 µg/mL (≈ 3.83 µM). Further, the minimal inhibitory concentration (MIC) in [18] came out at 2 µg/mL (≈ 3.83 µM); in test [19] it was 32 µg/mL (≈ 61.4 µM); in test [20] it was 256 µg/mL (≈ 491 µM); in [21], 8 µg/mL (≈ 15.3 µM). The IC50 in test [6] is 44.5 ± 4 µM; in [7], 25.7 ± 0.8 µM; in test [8], 19.9 ± 2.2 µM; in [9], 28.2 ± 0.6 µM; in [14] it was 49.1 ± 4.1 µM.

`CC(C)[C@@H]1CC[C@@H](C)C[C@H]1OCC(=O)N1CCN(c2cc3c(cc2F)c(=O)c(C(=O)O)cn3C2CC2)CC1` [Compound 1, 1-cyclopropyl-6-fluoro-7-{4-[2-((1R,2S,5R)-2-isopropyl-5-methylcyclohexyloxy)acetyl]piperazin-1-yl}-4-oxo-1,4-dihydroquinoline-3-carboxylic acid]: the minimum inhibitory concentration (MIC) was found to be 2 µg/mL (≈ 3.79 µM) in test [1]; 4 µg/mL (≈ 7.58 µM) in test [2]; 32 µg/mL (≈ 60.6 µM) in test [3]; 4 µg/mL (≈ 7.58 µM) in test [4]; 8 µg/mL (≈ 15.2 µM) in [5]; 2 µg/mL (≈ 3.79 µM) in test [10]. Besides, the MIC in test [11] was 8 µg/mL (≈ 15.2 µM); in test [12] it was greater than 256 µg/mL; in test [13], 4 µg/mL (≈ 7.58 µM); in test [15], 32 µg/mL (≈ 60.6 µM); in [16] it was greater than 256 µg/mL; in test [17], 4 µg/mL (≈ 7.58 µM). In addition, the MIC was 4 µg/mL (≈ 7.58 µM) in test [18], 32 µg/mL (≈ 60.6 µM) in test [19], greater than 256 µg/mL in test [20] and 8 µg/mL (≈ 15.2 µM) in test [21]. Also, the IC50 in test [6] came out at 34.9 ± 1.4 µM; in [7], 23.1 ± 0.2 µM; in [8], 21.7 ± 0.8 µM; in test [9] it was 39.9 ± 4.5 µM; in test [14] it was 28.1 ± 2.1 µM.

As for `Cc1ccc(C(C)C)c(OC(=O)CCN2CCN(c3cc4c(cc3F)c(=O)c(C(=O)O)cn4C3CC3)CC2)c1` [Compound 11, 1-cyclopropyl-6-fluoro-7-{4-[3-(2-isopropyl-5-methylphenoxy)-3-oxopropyl]piperazin-1-yl}-4-oxo-1,4-dihydroquinoline-3-carboxylic acid], the MIC in test [1] was 4 µg/mL (≈ 7.47 µM); in test [2], 4 µg/mL (≈ 7.47 µM); in [3] it was 2 to 4 µg/mL (≈ 3.73 to 7.47 µM); in test [4] it was 4 µg/mL (≈ 7.47 µM); in test [5] it was 4 µg/mL (≈ 7.47 µM); in test [10] it was 4 µg/mL (≈ 7.47 µM). Besides, the MIC in test [11] amounted to 8 µg/mL (≈ 14.9 µM); in test [12], 256 µg/mL (≈ 478 µM); in test [13] it was 4 µg/mL (≈ 7.47 µM); in test [15], 4 µg/mL (≈ 7.47 µM); in test [16], 16 µg/mL (≈ 29.9 µM); in test [17], 4 µg/mL (≈ 7.47 µM). Also, the MIC in [18] was 4 µg/mL (≈ 7.47 µM); in test [19] it was 8 µg/mL (≈ 14.9 µM); in test [20], 16 µg/mL (≈ 29.9 µM); in test [21], 8 µg/mL (≈ 14.9 µM). Further, the “MIC E. coli ATCC 25922” value in test [3] (19 h) turned out to be 4 µg/mL (≈ 7.47 µM). Further, the concentration for half-maximal inhibition (IC50) in [6] was 39.1 ± 5.8 µM; in test [7], 51.3 ± 4.1 µM; in [8], greater than 100 µM; in test [9], 33.7 ± 6.6 µM; in [14], 43.5 ± 7.5 µM.

As for `O=C(O)c1cn(C2CC2)c2cc(N3CCNCC3)c(F)cc2c1=O` [Ciprofloxacin, reference compound], the IC50 in test [6], in test [7], in [8], in test [9] and in test [14] was greater than 100 µM in each case.

On to `COc1cccc2c1C(=O)c1c(O)c3c(c(O)c1C2=O)C[C@@](O)(C(=O)CO)C[C@@H]3O[C@H]1C[C@H](N)[C@H](O)[C@H](C)O1` [Doxorubicin, reference compound], for which the IC50 in test [6] stood at 0.59 ± 0.02 µM; in [7], 0.38 µM; in test [8], 0.29 ± 0.1 µM; in test [9] it was 0.75 ± 0.1 µM.
